Assay results taken from patent EP1180991B1, “GAMBOGIC ACID DERIVATIVES AS ACTIVATORS OF CASPASES AND INDUCERS OF APOPTOSIS” (Cytovia, Inc., priority 1999, dated 2000).

How the values were obtained:
[1] = system: A-549; experiment: Inhibition of cell proliferation (GI50) and cell death (LC50), CellTiter 96 (Example 91); assay type: cell-based; settings: Homo sapiens, A549, A-549, 48 h
Protocol: (§1) T-47D, ZR-75-1, PC-3, human prostate cancer cell line DU-145, human non-small cell lung cancer cell line A-549, human small cell lung cancer cell line SHP-77, HL-60 and MRC-5 cells were grown and harvested as in Example 90. […] The samples were mixed by agitation and incubated at 37° C for 2-4 h in a 5% CO2-95% humidity incubator. […] This determines the possible background absorbance of the test compounds. No absorbance for gambogic acid or its analogs or derivatives was found at 490 nm. After the 2-4 h incubation, the samples were read for absorbance as above (ATest).
(§2) The samples were mixed by agitation and incubated at 37° C for 2-4 h in a 5% CO2-95% humidity incubator. Absorbance was read as above, (AT=0) defining absorbance for initial cell number used as baseline in GI50 determinations and (Amin) defining absorbance for media alone used as baseline in LC50 determinations.
(§3) GI50 (dose for50%inhibition of cell proliferation) 50 = 100 x [(ATest-AT = 0)/(Amax-AT = 0)] [formula] LC50 (dose for50%cell death) 50 = 100 x [(ATest-Amin)/(AT = 0-Amin)] [formula]

[2] = system: DU-145; experiment: as above; assay type: cell-based; settings: Homo sapiens, DU-145, 48 h
Protocol: as §1, §2, §3

[3] = system: HL-60; experiment: as above; assay type: cell-based; settings: Homo sapiens, HL-60, 48 h
Protocol: as §1, §2, §3

[4] = system: PC-3; experiment: as above; assay type: cell-based; settings: Homo sapiens, PC-3, 48 h
Protocol: as §1, §2, §3

[5] = system: SHP-77; experiment: as above; assay type: cell-based; settings: Homo sapiens, SHP77, SHP-77, 48 h
Protocol: as §1, §2, §3

[6] = system: T-47D; experiment: as above; assay type: cell-based; settings: Homo sapiens, T47D, T-47D, 48 h
Protocol: as §1, §2, §3

[7] = system: ZR-75-1; experiment: as above; assay type: cell-based; settings: Homo sapiens, ZR-75-1, 48 h
Protocol: as §1, §2, §3

[8] = system: A-549; experiment: Caspase activity with and without caspase inhibitor (Example 97); assay type: cell-based, human; design: key to Inhibition of caspase activity by Inhibitor: The caspase activity detected was inhibited by the caspase inhibitor (+)
Protocol: (§4) T47D, ZR-75, PC3, SHP-77 and A-549 cells were maintained and harvested as described in Example 90. Cells were added to 96-well plates as described in Example 90. The cells were treated with 10 µM gambogic acid, in the presence and in the absence of 10 µM caspase inhibitor cbz-Val-Asp-fink (Cytovia, Inc.; WO99/18781). The plate was incubated up to 24 h at 37° C in a 5% CO2-95% humidity incubator. Caspase activity was determined by addition of a fluorogenic substrate as described in Example 90.
(§5) Gambogic acid induced caspase activity in a ratio of greater than 2.5 (+) above untreated cell levels in all the tested cancer cell lines (Table IV). The caspase activity detected was inhibited by the caspase inhibitor (+), confirming that the fluorescent signal was due to caspase activity. Table IV. Gambogic Acid as Caspase Inducers in Solid Tumor Cells

[9] = system: PC-3; experiment: as above; assay type: cell-based, human; design: key to Inhibition of caspase activity by Inhibitor: The caspase activity detected was inhibited by the caspase inhibitor (+)
Protocol: as §4, §5

[10] = system: SHP-77; experiment: as above; assay type: cell-based, human; design: key to Inhibition of caspase activity by Inhibitor: The caspase activity detected was inhibited by the caspase inhibitor (+)
Protocol: as §4, §5

[11] = system: T47D; experiment: as above; assay type: cell-based, human; design: key to Inhibition of caspase activity by Inhibitor: The caspase activity detected was inhibited by the caspase inhibitor (+)
Protocol: as §4, §5

[12] = system: ZR-75; experiment: as above; assay type: cell-based, human; design: key to Inhibition of caspase activity by Inhibitor: The caspase activity detected was inhibited by the caspase inhibitor (+)
Protocol: as §4, §5

[13] = system: HL-60 cells; experiment: PARP cleavage, western blot (Example 98); assay type: cell-based, human; settings: 2.5 µM, 2 h (Fig. 5B)
Protocol: (§6) Cleavage of the enzyme poly(ADP)ribose polymerase (PARP) by caspase-3 and related proteases is considered to be one of the molecular hallmarks of caspase-mediated apoptosis. Therefore, the ability of gambogic acid to induce PARP cleavage in four different human tumor cell lines (Jurkat cells, HL-60 cells, T47D cells and PC3 cells) was determined.
(§7) Cells were cultured in complete growth medium containing 10% FBS and treated with gambogic acid at concentrations of 2.5 µM or 5 µM for 2 to 4 h. Control cultures were treated with a drug vehicle (DMSO), or the well-characterized apoptosis inducer, staurosporine. At the end of the apoptosis induction period, the cells were harvested, washed once with PBS, quick-frozen on dry ice, and stored at -80° C. The cells were then lysed in a standard immunoblotting lysis buffer and samples of the lysates were electrophoresed on 4% to 20% gradient polyacrylamide gels. The proteins in the gels were then transferred to PVDF membranes and probed with a commercially-available rabbit polyclonal antibody to PARP.

[14] = system: Jurkat cells; experiment: PARP cleavage, western blot (Example 98); assay type: cell-based, human; settings: 2.5 µM, 2 h (Fig. 5A)
Protocol: as §6, §7

[15] = dose for 50% cell death, read-out: LC50 (the source's name)
[16] = dose for 50% inhibition of cell proliferation, read-out: GI50
[17] = 10 µM plus 10 µM caspase inhibitor cbz-Val-Asp-fink
[18] = Homo sapiens, 10 µM, up to 24 h

## CC(C)=CCC[C@]1(C)C=Cc2c(O)c3c(c(CC=C(C)C)c2O1)O[C@]12C(=C[C@@H]4C[C@H]1C(C)(C)O[C@@]2(C/C=C(/C)C(=O)O)C4=O)C3=O [Example 1, Gambogic Acid]
[1]; [15]
  CC50: 5000 nM
[1]; [16]
  GI50: 800 nM
[2]; [15]
  CC50: 800 nM
[2]; [16]
  GI50: 500 nM
[3]; [15]
  CC50: 700 nM
[3]; [16]
  GI50: 500 nM
[4]; [15]
  CC50: 700 nM
[4]; [16]
  GI50: 500 nM
[5]; [15]
  CC50: 500 nM
[5]; [16]
  GI50: 500 nM
[6]; [15]
  CC50: 450 nM
[6]; [16]
  GI50: 65 nM
[7]; [15]
  CC50: 500 nM
[7]; [16]
  GI50: 400 nM
[8]; [17]
  Inhibition of caspase activity by Inhibitor: +
[8]; Homo sapiens, A549, 10 µM, up to 24 h
  fold induction at 10 µM: > 2.5
[9]; [17]
  Inhibition of caspase activity by Inhibitor: +
[9]; [18]
  fold induction at 10 µM: > 2.5
[10]; [17]
  Inhibition of caspase activity by Inhibitor: +
[10]; Homo sapiens, SHP77, 10 µM, up to 24 h
  fold induction at 10 µM: > 2.5
[11]; [17]
  Inhibition of caspase activity by Inhibitor: +
[11]; [18]
  fold induction at 10 µM: > 2.5
[12]; [17]
  Inhibition of caspase activity by Inhibitor: +
[12]; Homo sapiens, ZR75, 10 µM, up to 24 h
  fold induction at 10 µM: > 2.5
[13]
  PARP cleavage: almost complete PARP cleavage
[14]
  PARP cleavage: almost complete PARP cleavage
